System: T1, SnFDHal
T1 construct: full-length 1,551 bp gene (about 516 residues) cloned from genomic DNA, pET28a NdeI/XhoI, His6-tagged, E. coli BL21(DE3), Ni-NTA; residues F49, K75, I78, H92, F94, Q187, E359, S460
Test: HPLC chlorination assay, Michaelis-Menten fit
Assay type: biochemical, Streptomyces noursei
Settings: NADH, FAD, E. coli Fre reductase (FADH2 regeneration), NaCl; 100 mM phosphate pH 6.0, 35 °C, 30 min
Description: HPLC chlorination assay, Michaelis-Menten fit on SnFDHal

Km	Structure (SMILES)
945 µM	N[C@@H](Cc1c[nH]c2cc(Cl)ccc12)C(=O)O [6-Cl-Trp, 6-chlorotryptophan]
172 µM	N[C@@H](Cc1c[nH]c2c(Cl)cccc12)C(=O)O [7-Cl-Trp, 7-chlorotryptophan]

Structure (SMILES)	Km
N[C@@H](Cc1c[nH]c2ccccc12)C(=O)O [L-Trp, L-tryptophan]	622 µM
